Data published in patent US9889147B2 (CELLACT PHARMA GMBH, priority 2010, dated 2018).

Assays:
tumour cells = conditions: cited from earlier work
CES1 = molecular target: T1, CES1 (Homo sapiens, UniProt P23141); test: Conversion of CAP7.1 to etoposide by CES1 (HPLC); assay type: in vitro ADME; conditions: 5 μM CAP7.1, sodium phosphate pH 7.4, 37° C.
T1 sequence (P23141 18-567): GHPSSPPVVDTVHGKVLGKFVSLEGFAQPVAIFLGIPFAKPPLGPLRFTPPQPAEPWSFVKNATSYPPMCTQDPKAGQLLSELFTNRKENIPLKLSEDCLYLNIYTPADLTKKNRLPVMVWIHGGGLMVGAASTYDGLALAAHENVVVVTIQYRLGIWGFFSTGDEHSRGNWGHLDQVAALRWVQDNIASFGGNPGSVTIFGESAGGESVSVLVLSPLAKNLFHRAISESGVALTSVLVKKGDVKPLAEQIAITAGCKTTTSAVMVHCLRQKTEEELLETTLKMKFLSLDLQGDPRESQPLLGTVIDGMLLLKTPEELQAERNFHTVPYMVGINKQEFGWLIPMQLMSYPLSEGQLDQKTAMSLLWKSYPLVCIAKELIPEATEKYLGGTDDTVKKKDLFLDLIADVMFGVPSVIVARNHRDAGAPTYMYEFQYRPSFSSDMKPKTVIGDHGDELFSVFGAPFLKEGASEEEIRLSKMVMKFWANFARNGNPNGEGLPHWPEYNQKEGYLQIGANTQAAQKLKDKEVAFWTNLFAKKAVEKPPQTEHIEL
Method: (§1) 5 μM CAP7.1 was pre-incubated for 3 min in 999 μl 0.1 mol/l) sodium phosphate (NaH2PO4, Roth, Karlsruhe, Germany) pH 7.4 at 37° C. After that, CES1, CES2 and CES3, respectively, were added. Controls were incubated with 10% foetal calf serum (FCS, positive control) or in buffer (negative control). At different time points, aliquots were subjected to HPLC in order to analyse the formed products.

[1] = Time course of apoptosis induction; assay type: cell-based
Half life in mice = conditions: mouse, in vivo; mice with high levels of carboxylesterases
topoisomerase II α = test: Topoisomerase II alpha mRNA expression in U937 cells (PCR); assay type: cell-based; conditions: 24 h
Method: (§2) One of the controls involved the treatment of the cells with 0.05% (1 μl) DMSO. Untreated cells are also shown as a control.
(§3) After an incubation time of 24 h, expression was analysed by determining mRNA levels by real-time PCR. In the respective lanes of FIG. 2, the bands for topoisomerase II α (322 bp), topoisomerase II β (304 bp) and the GAPDH control (358 bp) are shown. In the H2O control lane, showing the results of the H2O control sample, no bands were observed.

CES2 = molecular target: T2, CES2 (Homo sapiens, UniProt O00748); test: Conversion of CAP7.1 to etoposide by CES2 (HPLC); assay type: in vitro ADME; conditions: 5 μM CAP7.1, sodium phosphate pH 7.4, 37° C.
T2 sequence (O00748 27-559): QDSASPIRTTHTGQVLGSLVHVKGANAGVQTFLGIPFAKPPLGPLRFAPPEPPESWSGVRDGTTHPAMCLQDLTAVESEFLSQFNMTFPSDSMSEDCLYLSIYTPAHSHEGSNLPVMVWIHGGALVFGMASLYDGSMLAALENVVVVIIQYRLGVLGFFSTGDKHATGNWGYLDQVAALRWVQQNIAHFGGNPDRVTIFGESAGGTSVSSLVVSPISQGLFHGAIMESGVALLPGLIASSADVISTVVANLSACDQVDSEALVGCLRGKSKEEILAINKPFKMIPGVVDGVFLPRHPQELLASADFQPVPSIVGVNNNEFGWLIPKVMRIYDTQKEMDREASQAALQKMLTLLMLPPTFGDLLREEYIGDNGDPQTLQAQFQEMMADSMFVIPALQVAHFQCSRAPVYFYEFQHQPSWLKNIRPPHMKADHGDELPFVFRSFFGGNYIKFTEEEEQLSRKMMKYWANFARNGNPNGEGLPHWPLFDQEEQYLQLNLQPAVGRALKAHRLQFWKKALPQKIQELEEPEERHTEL
Method: as §1

P-glycoprotein = P-glycoprotein (Homo sapiens, UniProt P08183); test: P-glycoprotein substrate behaviour; assay type: cell-based
P-glycoprotein, sequence (P08183 whole entry): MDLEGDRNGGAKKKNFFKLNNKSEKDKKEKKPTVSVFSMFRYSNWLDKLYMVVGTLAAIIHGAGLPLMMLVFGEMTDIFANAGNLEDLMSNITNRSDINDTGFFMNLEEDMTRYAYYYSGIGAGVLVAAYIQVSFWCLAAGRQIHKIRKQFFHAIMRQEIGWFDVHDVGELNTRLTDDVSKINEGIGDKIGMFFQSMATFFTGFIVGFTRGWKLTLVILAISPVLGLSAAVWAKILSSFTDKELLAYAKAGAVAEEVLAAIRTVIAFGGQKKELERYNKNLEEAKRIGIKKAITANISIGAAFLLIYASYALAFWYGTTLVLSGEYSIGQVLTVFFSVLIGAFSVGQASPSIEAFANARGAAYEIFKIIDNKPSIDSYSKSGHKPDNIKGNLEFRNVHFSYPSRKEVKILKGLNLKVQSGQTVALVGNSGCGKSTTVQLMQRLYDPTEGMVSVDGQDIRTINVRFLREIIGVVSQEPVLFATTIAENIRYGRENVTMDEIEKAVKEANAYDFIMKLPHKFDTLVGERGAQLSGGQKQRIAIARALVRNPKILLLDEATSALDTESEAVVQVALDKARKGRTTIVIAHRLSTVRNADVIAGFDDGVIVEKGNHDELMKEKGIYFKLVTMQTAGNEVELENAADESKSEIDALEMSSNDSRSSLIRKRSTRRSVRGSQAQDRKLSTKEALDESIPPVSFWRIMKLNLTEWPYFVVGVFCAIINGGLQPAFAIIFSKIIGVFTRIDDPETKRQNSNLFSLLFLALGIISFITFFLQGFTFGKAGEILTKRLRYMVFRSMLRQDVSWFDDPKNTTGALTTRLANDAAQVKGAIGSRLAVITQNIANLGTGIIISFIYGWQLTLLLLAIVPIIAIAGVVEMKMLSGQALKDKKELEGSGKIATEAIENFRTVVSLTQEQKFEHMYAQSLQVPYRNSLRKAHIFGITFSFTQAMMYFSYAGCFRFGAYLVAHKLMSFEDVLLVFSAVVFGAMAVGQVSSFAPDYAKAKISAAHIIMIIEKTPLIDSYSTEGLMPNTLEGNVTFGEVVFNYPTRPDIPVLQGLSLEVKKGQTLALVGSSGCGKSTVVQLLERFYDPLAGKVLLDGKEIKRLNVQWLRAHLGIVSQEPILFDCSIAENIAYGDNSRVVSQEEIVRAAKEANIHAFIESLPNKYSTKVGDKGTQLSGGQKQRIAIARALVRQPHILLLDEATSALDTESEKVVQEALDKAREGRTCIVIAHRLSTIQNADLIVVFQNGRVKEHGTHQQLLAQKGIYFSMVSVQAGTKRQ

U937 cells = test: Cell cycle analysis in multidrug-resistant U937 cells (propidium iodide); assay type: cell-based; conditions: 18 h, 24 h and 48 h, CAP7.1, etoposide 10^−4 mol/l
Method: The cells were incubated for 48 h. After 18 h, 24 h and 48 h of incubation, respectively, cell cycle analysis was performed as follows:
Cells were washed once with CellWash, fixed with fridge-cold 70% Ethanol for 30 min at 4° C. and washed three times. RNA was digested with RNAse A (100 μg/ml in PBS) for 10 min at room temperature. Cells were washed once with CellWash and stained with propidium iodide (50 μg/ml in PBS) for 5 min at room temperature in the dark. Cells were analyzed immediately by flow cytometry using a FACScanto II apparatus.

[2] = mouse, in vivo
[3] = Stability in sodium phosphate buffer (negative control); assay type: physicochemical; conditions: sodium phosphate pH 7.4, 37° C.
Method: as §1

Animal toxicity profile = conditions: animals
topoisomerase II β = test: Topoisomerase II beta mRNA expression in U937 cells (PCR); assay type: cell-based; conditions: 10^4 mol/l, 24 h
Method: as §2, §3

CES3 = molecular target: T3, CES3 (Homo sapiens, UniProt Q6UWW8); test: Conversion of CAP7.1 to etoposide by CES3 (HPLC); assay type: in vitro ADME; conditions: 5 μM CAP7.1, sodium phosphate pH 7.4, 37° C.
T3 sequence (Q6UWW8 27-571): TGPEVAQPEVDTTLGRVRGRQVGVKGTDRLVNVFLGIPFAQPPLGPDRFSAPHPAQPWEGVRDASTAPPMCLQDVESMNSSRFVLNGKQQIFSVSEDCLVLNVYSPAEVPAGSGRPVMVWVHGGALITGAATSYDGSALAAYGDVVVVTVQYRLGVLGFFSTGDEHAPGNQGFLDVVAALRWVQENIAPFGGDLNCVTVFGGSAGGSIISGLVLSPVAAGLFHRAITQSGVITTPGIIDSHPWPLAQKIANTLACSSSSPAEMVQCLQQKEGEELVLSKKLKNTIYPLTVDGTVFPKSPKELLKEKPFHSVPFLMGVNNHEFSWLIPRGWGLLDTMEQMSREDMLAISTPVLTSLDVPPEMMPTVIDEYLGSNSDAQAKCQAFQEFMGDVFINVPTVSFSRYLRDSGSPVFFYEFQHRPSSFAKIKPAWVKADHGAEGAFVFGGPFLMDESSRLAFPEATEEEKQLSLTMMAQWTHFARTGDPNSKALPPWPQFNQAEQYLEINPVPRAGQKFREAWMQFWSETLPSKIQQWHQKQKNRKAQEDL
Method: as §1

[4] = system: tumours that were metastatic and/or that reduced the function of at least one organ; test: Phase I/IIa safety/efficacy study in patients with metastatic and/or organ-function-reducing tumours
Method: Nine heavily pre-treated patients were recruited to a combined Phase I/IIa safety/efficacy study. The patients had tumours that were metastatic and/or that reduced the function of at least one organ.
In all patients, the tumours were clinically assessed and the history of their disease was recorded. Tumour markers were determined.
A cycle of treatment consisted of CAP7.1 administration by infusion on 5 consecutive days, followed by an intermittent period of 16 days in which no CAP7.1 was administered. […] The first cohort (patients 1-3, 8 cycles in total) received CAP7.1 at a daily dose of 45 mg/m^2, the second cohort (patients 4-6, 9 cycles in total) at a daily dose of 90 mg/m^2 and the third cohort (patients 7-9) at a daily dose of 150 mg/m^2.

Half life in primates = assay type: in vivo
NSX2 tumour xenografts = test: NSX2 tumour xenograft model; assay type: in vivo; conditions: mice bearing NSX2 tumour xenografts (MDR-mediated etoposide-resistant)
Excerpt: The lack of cross-resistance to CAP7.1 of MDR-mediated etoposide-resistant cell lines in vitro was confirmed in vivo in mice bearing NSX2 tumour xenografts.

[5] = Combination therapy with carboplatin in children with advanced neuroblastoma; assay type: in vivo, human; conditions: human; plasma, one of the children treated
Method: (§4) CAP7.1 was administered with carboplatin to three children with heavily pre-treated advanced neuroblastoma.
(§5) Cycles were repeated every 21 days and a total of 4 cycles were administered in each patient. Toxicity was mainly haematological, grade 1-2 at 200 mg/m^2 and increased to grade 3-4 in the rest of the cycles, but cycle delay due to toxicity was not necessary.

advanced neuroblastoma = test: as above; assay type: in vivo, human
Method: as §4, §5

[6] = Side effects in preclinical and clinical studies; assay type: in vivo
Half life in humans = conditions: human, in vivo
[7] = molecular target: T4, MDR-1 gene product (P-glycoprotein) (Homo sapiens, UniProt P08183); test: Functional MDR-1 assay with JC-1 in Kelly cells (flow cytometry); assay type: cell-based; conditions: for intracellular JC-1 signal versus DMSO control (MDR-1-mediated substrate efflux): Kelly cells, 10^−4 mol/l, 15 min
T4 construct: endogenous in cells; host or cells: Kelly
T4 sequence (P08183 whole entry): as the sequence (P08183 whole entry) above
Method: By means of an assay using JC-1, MDR-1 activity was assessed in Kelly cells, which express MDR-1. JC-1 is a cationic staining dye which is taken up by living cells. JC-1 is recognized by the MDR-1 gene product (P-glycoprotein) and pumped to the outside of the cell (substrate efflux). Thus, MDR-1 activity is indicated by a reduction in intracellular JC-1 signal.
Kelly cells grown in RPMI medium were washed and resuspended at a concentration of 10^6 cells/ml in solutions containing JC-1 in a final concentration of 50 nmol/l. […] The control contained 1 μl (0.05%) DMSO. Cells were analysed for JC-1 staining in a FACScanto II flow cytometer.

[8] = Cardiovascular telemetry study; assay type: in vivo, cynomolgus monkeys; conditions: conscious monkeys, single intravenous 30-minute infusion
Excerpt: The objective of this study was to evaluate the potential modifications of cardiovascular function and cardiac electrophysiology by CAP7.1. The intravenous route was selected, as it is the intended mode of administration in human therapeutic use.
A total of four cynomolgus monkeys (two males and two females) were implanted with telemetric devices and allocated to a single group. They received a single dose of the vehicle (Cremophor/ethanol/NaCl) or CAP7.1, by intravenous 30-minute infusion. Cardiovascular parameters were monitored up to 24 hours following single infusion. The cardiovascular parameters evaluated in this study included heart rate, diastolic, systolic and mean arterial pressure, and duration of the PQ, QRS and QT intervals.

HT-29 cells = test: Cytotoxicity on HT-29 cells (XTT); assay type: cell-based; conditions: cell viability (XTT)
Method: HT-29 cells, which are not multidrug-resistant, were grown in DMEM, 10% foetal calf serum, 2 mM glutamine and […] Pen/Strep medium and then washed.
Cells were harvested, counted, and inoculated at the appropriate concentration of 10^4 cells/well (100 μl volume) into 96-well microtiter plates. After 24 h, the drugs were applied to triplicate culture wells, and cultures were incubated for given times at 37° C. XTT was prepared at 1 mg/ml in pre-warmed (37° C.) medium (RPMI 1640) without serum. PMS was prepared at 5 mmol/l (1.53 mg/ml) in PBS. Fresh XTT and PMS were mixed together at appropriate concentrations. For a 25 μmol/l XTT-PMS solution, 25 μl of the 5 mmol/l PMS solution were added per 5 ml of XTT (1 mg/ml). 50 μl of this mixture were added to each well on given time points after cell inoculation. After incubation at 37° C., the plates were mixed on a mechanical plate shaker, and absorbance was measured with an ELISA Reader to determine cell viability.

Compound: COc1cc([C@@H]2c3cc4c(cc3C(OC3OC5COC(C)OC5C(O)C3O)C3COC(=O)[C@@H]32)OCO4)cc(OC)c1OC(=O)OCC(O)CO (some centres unmarked) [CAP7.1]
- potency relative to etoposide, e.g. cytotoxicity on tumour cells (tumour cells): up to 1000 times
- cleavage of CAP7.1 to etoposide by CES1 (CES1): efficiently cleaves
- time after which apoptosis is complete [1]: 120 h
- half-life (Half life in mice): < 5 min
- expression of topoisomerase II α (mRNA) (topoisomerase II α): significant decrease
- cleavage of CAP7.1 to etoposide by CES2 (CES2): as efficiently as the positive control FCS
- substrate for P-glycoprotein / efflux from cells (P-glycoprotein): not a substrate for P-glycoprotein
- fraction of cells in G2 phase with increasing incubation times (U937 cells): increase
- LD10 [2]: 360 mg/m^2
- stability in buffer (negative control) [3]: stable
- main toxicity at sublethal dose (Animal toxicity profile): bone marrow suppression affecting predominantly neutrophils and red cells
- weight loss (Animal toxicity profile): do not
- tooth damage (Animal toxicity profile; high dose group): reversible tooth damage
- expression of topoisomerase II β (mRNA) (topoisomerase II β): significant decrease
- cleavage of CAP7.1 to etoposide by CES3 (CES3): substantially no cleavage
- tolerability of the therapy ([4]; all nine patients, 45, 90 or 150 mg/m^2 daily on 5 consecutive days per cycle): tolerated the therapy well without major adverse reactions
- clinical response after the second cycle of treatment ([4]; patients 1, 3, 4, 6, 8 and 9 of nine): stagnation of the disease
- total dose per cycle tolerated without toxicity ([4]; patients 1 to 6): 450 mg/m^2
- half life compared with mice (Half life in primates): longer
- tumour growth compared to control (NSX2 tumour xenografts): clear inhibition of tumour growth
- Cmax [5]: 3700 ng/mL
- half-life [5]: 12 to 30 min
- haematological toxicity grade (advanced neuroblastoma; CAP7.1 200 mg/m^2 day 1 with carboplatin 150 mg/m^2 days 2-5): 1-2 grade
- haematological toxicity grade (advanced neuroblastoma; rest of the cycles (CAP7.1 400, 600 and 800 mg/m^2) with carboplatin): 3-4 grade
- tumour response (advanced neuroblastoma; two of the three patients, with carboplatin): evidences of tumour shrinkage
- side effects compared with etoposide [6]: fewer side effects than etoposide
- half-life (Half life in humans): 15 to 30 min
- intracellular JC-1 signal versus DMSO control (MDR-1-mediated substrate efflux) [7]: increased
- arrhythmias [8]: No arrhythmias
- modifications in the cardiac electrophysiological parameters ([8]; up to 24 hours): no relevant modifications
- IC50 value of CAP7.1 lower than IC50 value of etoposide (HT-29 cells): 10 fold

Compound: COc1cc([C@@H]2c3cc4c(cc3[C@@H](O[C@@H]3O[C@@H]5CO[C@@H](C)O[C@H]5[C@H](O)[C@H]3O)[C@H]3COC(=O)[C@H]23)OCO4)cc(OC)c1O [etoposide, reference compound]
- expression of topoisomerase II α (mRNA) (topoisomerase II α): significant decrease
- substrate for P-glycoprotein / efflux from cells (P-glycoprotein): pumped out of the cells
- fraction of cells in G2 phase with increasing incubation times (U937 cells): reduction
- weight loss (Animal toxicity profile): significant weight loss
- expression of topoisomerase II β (mRNA) (topoisomerase II β): significant decrease
- intracellular JC-1 signal versus DMSO control (MDR-1-mediated substrate efflux) [7]: identical
- effect on the MDR-1 gene product P-glycoprotein ([7]; general statement): ineffective on P-glycoprotein
